pKi: −log10 of the molar value. Where a name gives a salt, the structure may show the parent alone.
What was measured:
AT1 receptor = molecular target: T1, AT1 receptor (Homo sapiens, UniProt P30556); assay: AT1 receptor binding (inhibitory constant)
T1 sequence (P30556 1-359): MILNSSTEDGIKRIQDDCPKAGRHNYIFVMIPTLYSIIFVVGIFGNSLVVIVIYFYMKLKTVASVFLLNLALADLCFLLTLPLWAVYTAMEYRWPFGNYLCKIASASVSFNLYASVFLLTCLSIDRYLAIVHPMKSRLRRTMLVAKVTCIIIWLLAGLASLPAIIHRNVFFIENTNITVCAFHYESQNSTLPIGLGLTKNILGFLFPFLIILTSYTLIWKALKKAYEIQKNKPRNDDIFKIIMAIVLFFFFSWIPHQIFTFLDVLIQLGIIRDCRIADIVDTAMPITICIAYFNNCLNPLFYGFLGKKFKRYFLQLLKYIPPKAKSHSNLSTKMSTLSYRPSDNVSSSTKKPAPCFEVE

[1] = Thermal stability on storage, purity by HPLC; format: physicochemical; conditions: 40° C. (open container), 75% relative humidity, one month; for Purity Change: HPLC area percentage (% AUC)
Protocol: Weighed samples of the crystalline materials were stored at 40° C. (open container) and 75% relative humidity, for one month. The samples were then analyzed by the following HPLC method:
Column: Agilent Zorbox SB-C18, 4.6×250 mm, 5 μm (Part No. 880975-902). Mobile Phase A: 80% H2O, 20% MeCN, 0.01% TFA. Mobile Phase B: 80% MeCN, 20% H2O, 0.01% TFA. Flow rate: 1 mL/min. Injection Volume: 20 μL. Detector: 250 nm.
The purity of the samples was determined by HPLC area percentage (% AUC).

[2] = Reslurrying of hemiedisylate salt form I and form II; format: physicochemical; conditions: EtOH/MTBE with or without water, room temperature
Protocol: (§1) Hemiedisylate salt form II (50 mg, 80 μmol) and hemiedisylate salt form I (50 mg, 80 μmol) were combined with a premixed solution of EtOH (420 μL) and MTBE (1.6 mL, 13 mmol). The mixture was capped and stirred at room temperature. The resulting solids were filtered and washed with dioxane to yield a solid (86 mg), which was determined to be hemiedisylate salt form II.
as §1, with “mmol). Water (20 μL) was added and the” for “mmol). The”, “solid (67” for “solid (86”

[3] = Differential scanning calorimetry (thermal stability); format: physicochemical; conditions: heating ramp 10° C./min
Protocol: Differential scanning calorimetry (DSC) experiments were performed using a TA Instruments Model Q-100 module with a Thermal Analyst controller. Data were collected and analyzed using TA Instruments Universal Analysis software. A sample of each crystalline form was accurately weighed into a covered aluminum pan. After a 5 minute isothermal equilibration period at 5° C., the sample was heated using a linear heating ramp of 10° C./min from 0° C. to 200° C.

[4] = Dynamic moisture sorption (DMS) assessment; format: physicochemical; conditions: 25° C.
Protocol: Dynamic moisture sorption (DMS) measurements were performed for each crystalline form using a VTI atmospheric microbalance, SGA-100 system (VTI Corp., Hialeah, Fla. 33016). A weighed sample was used and the humidity was set at the ambient value at the start of the analysis. The DMS analysis consisted of a scan rate of 5% RH/step over the full humidity range of 5% RH to 90% RH. The DMS run was performed isothermally at 25° C.

[5] = Solubility in buffers over 24 hours; format: physicochemical; conditions: pH>3, room temperature, FIG. 16
Protocol: Samples of the crystalline materials were evaluated over a 24 hour period at several pH ranges. The following buffer systems were used: • HCl buffer pH @ 1.15 • HCl buffer pH @ 1.94 • Potassium biphthate buffer pH @ 2.97 • Acetate buffer pH @ 4.17 • Acetate buffer pH @ 5.16 • Phosphate buffer pH @ 6.04 • Phosphate buffer pH @ 7.0
Samples (7-8 mg) of the crystalline materials were combined with 2 mL of each of the buffers in a 5 mL glass vial. The vials were then mounted onto an automatic rotator and rotate for 24 hours at room temperature. The resulting suspensions were filtered using a 0.45 μm filter (PVDF membrane) into a clean vial for HPLC analysis.

pKi (AT1 receptor) | Purity Change [1] [%] | temperature below which no significant thermal decomposition is seen (DSC) [3] [°C] | weight gain, humidity range 5% RH up to 90% RH ([4]; 5% RH to 90% RH) | weight gain when exposed to up to 70% RH [4] | solubility compared with the freebase [5] | Structure (SMILES) | relative stability of crystalline forms on reslurrying [2] | thermal stability on storage [1] | DMS moisture sorption/desorption behaviour ([4]; 5% RH to 90% RH)
≥ 7.00 | – | – | – | – | – | CCOc1nc(CC)c(CNC(=O)[C@@H](S)CC(C)C)n1Cc1ccc(-c2ccccc2C(=O)O)cc1F [compound of formula I, 4′-{2-ethoxy-4-ethyl-5-[((S)-2-mercapto-4-methylpentanoylamino)methyl]imidazol-1-ylmethyl}-3′-fluorobiphenyl-2-carboxylic acid] | – | – | –
– | −2.9 | – | – | – | – | CCOc1nc(CC)c(CNC(=O)[C@@H](S)CC(C)C)n1Cc1ccc(-c2ccccc2C(=O)O)cc1F [freebase form, 4′-{2-ethoxy-4-ethyl-5-[((S)-2-mercapto-4-methylpentanoylamino)methyl]imidazol-1-ylmethyl}-3′-fluorobiphenyl-2-carboxylic acid, reference compound] | – | – | –
– | −0.3 | ≥ 182 | about 0.16% | less than 0.10% | more soluble than the freebase | CCOc1nc(CC)c(CNC(=O)[C@@H](S)CC(C)C)n1Cc1ccc(-c2ccccc2C(=O)O)cc1F [hemiedisylate form II, Crystalline Hemiedisylate Salt Form II of 4′-{2-Ethoxy-4-ethyl-5-[((S)-2-mercapto-4-methylpentanoylamino)methyl]imidazol-1-ylmethyl}-3′-fluorobiphenyl-2-carboxylic Acid] | more stable than crystalline hemiedisylate salt form I | more stable than the previously known freebase form | –
– | – | ≥ 158 | about 0.38% | less than 0.26% | – | CCOc1nc(CC)c(CNC(=O)[C@@H](S)CC(C)C)n1Cc1ccc(-c2ccccc2C(=O)O)cc1F [hemiedisylate salt form I, Crystalline Hemiedisylate Salt Form I of 4′-{2-Ethoxy-4-ethyl-5-[((S)-2-mercapto-4-methylpentanoylamino)methyl]imidazol-1-ylmethyl}-3′-fluorobiphenyl-2-carboxylic Acid] | – | – | –
– | −0.1 | ≥ 181 | about 0.97% | less than 0.68% | more soluble than the freebase | CCOc1nc(CC)c(CNC(=O)[C@@H](S)CC(C)C)n1Cc1ccc(-c2ccccc2C(=O)O)cc1F [heminapadisylate form, Crystalline Heminapadisylate Salt of 4′-{2-Ethoxy-4-ethyl-5-[((S)-2-mercapto-4-methylpentanoylamino)methyl]imidazol-1-ylmethyl}-3′-fluorobiphenyl-2-carboxylic Acid] | – | more stable than the previously known freebase form | –
– | – | ≥ 140 | – | – | – | CCOc1nc(CC)c(CNC(=O)[C@@H](S)CC(C)C)n1Cc1ccc(-c2ccccc2C(=O)O)cc1F [mono-oxalate salt, Crystalline Mono-oxalate Salt of 4′-{2-Ethoxy-4-ethyl-5-[((S)-2-mercapto-4-methylpentanoylamino)methyl]imidazol-1-ylmethyl}-3′-fluorobiphenyl-2-carboxylic Acid] | – | – | picks up moisture gradually from 5% RH to 90% RH, and loses the moisture during drying segment
